Measurements reported in US7871981B2, “Inhibition of cell motility, angiogenesis, and metastasis” (The United States of America as represented by the …, priority 1999, dated 2011).

Columns and labels:
HMVE cells [1] = test: HMVE cell migration, modified Boyden chamber; format: cell-based, human
Method: (§1) The migration assay of HUVE and HMEC-1 cells in modified Boyden chambers was adapted from previously described procedures (Murohara et al., Thromb. Vasc. Biol., 19: 1156-61 (1999), Malinda et al., FASEB J., 13: 53-62 (1999)). In brief, Biocoat Cell Environment control inserts (8 micron pore size; Becton Dickinson) were coated with 0.1% gelatin (Sigma) for at least 1 hour at 37° C. and air dried. Lower chambers contained 0.7 ml RPMI+0.1% BSA, to which 20 ng/ml HGF and/or 300 nM Grb2 inhibitors were added. Cells were pre-treated with the indicated concentrations of Grb2 inhibitors for 18-24 hours, trypsinized, washed twice in RPMI+0.1% BSA, added to upper chambers (5×10^4 cells/well) with or without inhibitors in a final volume of 0.5 ml, and incubated for 4 h at 37° C. Cells on the upper surface of each filter were removed with a cotton swab, while cells that had traversed to the bottom surface of the filter were fixed and stained using Diff-Quik (Dade Diagnostics) and counted using a 10× objective. Mean values from 4 randomly selected fields (1×1.4 mm) were calculated for each of triplicate wells per experimental condition. Shown in FIG. 6 is the ratio of growth factor-treated to control migrating cells designated on the y-axis as “Migration (Fold Increase)” or as the mean number of cells per optical field in FIGS. 8-11.

HMVE cells [2] = test: HMVE cell proliferation; format: cell-based, human
Method: HUVE or HMVE cells were seeded per triplicate in type I collagen-coated 48-well plates (Biocoat) (3000 cells/well) in […] of complete EGM-Bullet Kit medium (BioWhittaker, Walkersville, Md.), allowed to attach for 4 hr and incubated overnight with or without the indicated concentrations of peptide 2. The cultures were rinsed twice in serum-free medium and incubated with EBM medium (BioWhittaker) supplemented with 50 μg/ml heparin, 50 μg/ml ascorbic acid and 10% FCS. After either 4 days (HUVE) or 5 days (HMVE), cells were harvested with trypsin/EDTA and counted with an hemocytometer. The mean number of cells per ml was calculated from 3 independent measures for each of triplicate wells per experimental condition and compared to controls using the Student's unpaired t-test. Results set forth in FIG. 12 are described as the ratio of growth factor-treated to control proliferating cells designated on the y-axis as “Proliferation (Fold Increase)”.

B16 mouse melanoma cells = test: Growth rate and viability in culture of C-90 treated B16 cells; format: cell-based; conditions: same study period
MDCK cells = test: Extracellular matrix invasion assay, MDCK cells in collagen gels; format: cell-based, canine; conditions: HGF 10 ng/ml, peptide 100 nM, 5 days
Method: MDCK cell invasion into three-dimensional collagen gels was analyzed as previously described. Briefly, type I collagen (1.5 mg/ml; Cohesion Technologies) was mixed with 10×MEM and sodium bicarbonate (11.76 mg/ml) at a ratio of 8:1:1 (vol:vol:vol) on ice, and 0.4 ml aliquots were dispensed into 16-mm tissue culture wells (Nunc), and allowed to gel at 37° C. for 20 min. Cells were seeded onto gels (1×10^4 cells/well) in 0.4 ml of growth medium containing HGF and/or peptides 1 or 4 as indicated. After 5 days, cells were fixed in situ in 2.5% glutaraldehyde in 0.1 M sodium cacodylate buffer (pH 7.4), and cells that had invaded the gel below the surface monolayer in ten randomly selected fields (1×1.4 mm) were counted microscopically using a 20× phase contrast objective. Depth of cellular invasion into the collagen gel was quantitated in the same ten fields per treatment group using a calibrated fine focusing micrometer. Values were compared using the Student's unpaired t-test and a significant value was taken as P<0.001. Results in Table 1 are shown as the mean number of invading cells/field or mean invasion depth/cell in microns+standard error of the mean.
MDCK cells were left untreated (Control), treated with HGF (10 ng/ml), or HGF+peptide 2 or 4 (100 nM), and invasion into collagen matrices was quantitated microscopically as described above. Values are the mean of at least 10 randomly selected fields±standard error of the mean. Epithelial Tube Formation Assay

PC3M cells = test: PC3M cell invasion across Matrigel-coated Transwell filters; format: cell-based, human; conditions: increasing concentrations, with or without HGF 40 ng/ml, 30 h
Method: After serum deprivation and pre-treatment for 16 hrs, PC3M cells were assayed in cell culture inserts (BD Biosciences), 8 micron-pore-size polyethylene terephthalate membrane with Falcon cell culture inserts (Becton Dickinson). Pre-treated cells were trypsinized and counted; a total of 1×10^5 cells in serum free medium (500 microliters) were added to the upper chamber, and 500 microliters of serum free media with the relative concentration of C90 and HGF were added to the lower chamber. […] Then the cells in the inside of the upper chamber were removed with a cotton swab and cell on the other side of the membrane were fixed and stained using Diff-Quick (Dade Diagnostics, Deerfield, Ill.). Photographs of […] random fields were taken and cells were counted by bright field microscopy using a 10× objective. Mean values from four randomly selected fields (1×1.4 mm) were calculated for each of triplicate wells per experimental condition.
FIG. 13B depicts bar graphs of PC3M cell invasion across Matrigel-coated Transwell filters in the presence (filled bars) or absence (unfilled bars) of HGF (40 ng/ml, 30 h).

TAC-2 cells = test: Epithelial tube formation assay, TAC-2 cells in collagen gels; format: cell-based
Method: TAC-2 cells were suspended in three-dimensional collagen gels at 1×10^4 cells/ml in collagen and incubated in complete medium containing HGF and/or Grb2 inhibitors as indicated. After 3 days, the cultures were fixed with 2.5% glutaraldehyde in 0.1 M cacodylate buffer, and at least 3 randomly selected fields per experimental condition in each of 3 separate experiments were digitally recorded with brightfield microscopy. The total length of the cords in each individual colony present in each optical field was measured with IPLab. Cord length was considered as “0” in: a) colonies with a spheroidal shape, and b) slightly elongated structures in which the length to diameter ratio was less than 2. The mean values for each experimental condition were compared to controls using the Student's unpaired t-test. Results in FIG. 5 are described as mean total cord length (in μm) per field.

NIH 3T3 fibroblasts = test: NIH 3T3 fibroblast migration, modified Boyden chamber; format: cell-based
Method: as §1
PDGF is implicated in different biological processes such vascular remodeling, wound healing and cancer (for reviews, see Bornfeldt et al., Ann N Y Acad. Sci., 766:416-30, 1995; Gendron, Surv. Ophthalmol., 44:184-5, 1999). Addition of 50 ng/ml PDGF-BB to NIH 3T3 fibroblasts incubated in a modified Boyden chamber results in a dramatic, 20-fold increase in cell migration. […] This observation opens a potential therapeutical use of the Grb2 inhibitor compounds in the treatment of diseases such as cancer, wound healing disorders, vascular complications of diabetes mellitus, vascular nephropathies, and diseases with occurrence of fibrosis.

Question: With `NC(=O)C[C@H](NC(=O)C1(NC(=O)[C@H](Cc2ccc(C(C(=O)O)C(=O)O)cc2)NC(=O)C(=O)O)CCCCC1)C(=O)NCCCc1cccc2ccccc12` [peptide 2, (N-oxalyl-4-malonyl)-Phe-Ac6c-Asn-NH-(3-naphthalen-1-yl-propyl)] as the compound, how does the VEGF-induced cell migration (HMVE cells [1]; VEGF) read?
Answer: The VEGF-induced cell migration was “significantly (p<0.001) reverted”.

Question: And the “cell migration induced by HGF” value (HMVE cells [1]; peptide 300 nM, HGF 0-50 ng/ml)?
Answer: Its value is “abolished”.

Question: And the “abolition of the effect of the optimal concentration of bFGF” value (HMVE cells [1]; peptide 300 nM, bFGF 5 ng/ml)?
Answer: Its value is 72%.

Question: What about the “biphasic stimulatory activity of bFGF on migration” value (HMVE cells [1]; peptide 300 nM, bFGF 0.2-50 ng/ml) of the same compound?
Answer: The value was “significantly (p<0.001) inhibited”.

Question: And the HMVE cell growth (HMVE cells [2]; peptide 30 nM, presence and absence of growth factors)?
Answer: The HMVE cell growth was “basically resistant”.

Question: And the HMVE cell growth (HMVE cells [2]; peptide 300 nM)?
Answer: Its HMVE cell growth is “highly significant (p<0.001) inhibition of cell growth”.

Question: And the “cell viability or growth rate in culture” value (B16 mouse melanoma cells)?
Answer: Its value is “no differences in cell viability or growth rate”.

Question: And the “Mean Invading Cells/Field” value (MDCK cells)?
Answer: Its value is 12.6 ± 1.9.

Question: What about the “Mean Invasion Depth/Cell” value (MDCK cells) of the same compound?
Answer: Its value is 17.9 ± 1.9 μm.

Question: And the “PC3M cell invasiveness in vitro” value (PC3M cells)?
Answer: Its value is “dose-dependent inhibition”.

Question: What about the “HGF-induced elongation of epithelial tubes (cord length)” value (TAC-2 cells; HGF 20 ng/ml, 3 days) of the same compound?
Answer: Its value is “significantly (p<0.0001) abrogate”.

Question: And the “concentration at which a sub-maximal inhibitory effect is already observed” value (TAC-2 cells; HGF-induced tube elongation)?
Answer: Its value is 30 nM.

Question: And the “PDGF-BB-induced NIH 3T3 cell migration” value (NIH 3T3 fibroblasts; co-added with PDGF-BB 50 ng/ml)?
Answer: Its value is “inhibits NIH 3T3 cell migration in a significant (p<0.001), dose-dependent manner”.

Question: And the “reduction in the mean number of cells per field” value (NIH 3T3 fibroblasts; peptide 30 nM, PDGF-BB 50 ng/ml)?
Answer: Its value is 60%.
